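Where inhibition never reached the appropriate level, the endpoint shown equals the highest concentration tested. Otherwise, values were interpolated linearly from a five-concentration, 48-hour dose response in 96-well plates. GI50 = concentration required for 50% inhibition of growth. TGI: total growth inhibition.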
Experiments:
Experiment in all cases: inhibition of tumour cell growth, NCI panel, 48 h
HOP-62 NSCLC = tested on: HOP-62 NSCLC
MCF7 breast = tested on: MCF7 breast
SF-268 CNS = tested on: SF-268 CNS
U251 CNS = tested on: U251 CNS
SK-OV-3 ovarian = tested on: SK-OV-3 ovarian
SK-MEL-5 melanoma = tested on: SK-MEL-5 melanoma
IGROV1 ovarian = tested on: IGROV1 ovarian
RXF 393 renal = tested on: RXF 393 renal
EKVX NSCLC = tested on: EKVX NSCLC
COLO 205 colon = tested on: COLO 205 colon
SK-MEL-2 melanoma = tested on: SK-MEL-2 melanoma
UACC-62 melanoma = tested on: UACC-62 melanoma
NCI/ADR-RES ovarian = tested on: NCI/ADR-RES ovarian
KM12 colon = tested on: KM12 colon
NCI-H522 lung = tested on: NCI-H522 lung
SK-MEL-28 melanoma = tested on: SK-MEL-28 melanoma
HCC-2998 colon = tested on: HCC-2998 colon
ACHN renal = tested on: ACHN renal
SN12C renal = tested on: SN12C renal
LOX IMVI melanoma = tested on: LOX IMVI melanoma
MDA-MB-468 breast = tested on: MDA-MB-468 breast
OVCAR-4 ovarian = tested on: OVCAR-4 ovarian
MOLT-4 leukemia = tested on: MOLT-4 leukemia
SR leukemia = tested on: SR leukemia
OVCAR-3 ovarian = tested on: OVCAR-3 ovarian
SNB-75 CNS = tested on: SNB-75 CNS
NCI-H23 lung = tested on: NCI-H23 lung
CAKI-1 renal = tested on: CAKI-1 renal
A549 NSCLC = tested on: A549 NSCLC

COc1cccc2nc(Nc3cccc(NC(=O)c4ccc(CN5CCN(C)CC5)c(C(F)(F)F)c4)c3)ccc12
TGI (HOP-62 NSCLC): 3.11 µM | GI50 (MCF7 breast): 1.57 µM | TGI (MCF7 breast): 3.2 µM | GI50 (SF-268 CNS): 1.69 µM | TGI (SF-268 CNS): 3.75 µM | GI50 (U251 CNS): 1.92 µM | TGI (U251 CNS): 3.71 µM | GI50 (SK-OV-3 ovarian): 9.22 µM | TGI (SK-OV-3 ovarian): 22.6 µM | GI50 (SK-MEL-5 melanoma): 1.62 µM | TGI (SK-MEL-5 melanoma): 3.02 µM | GI50 (IGROV1 ovarian): 2.25 µM | TGI (IGROV1 ovarian): 4.82 µM | GI50 (RXF 393 renal): 1.73 µM | TGI (RXF 393 renal): 3.96 µM | GI50 (EKVX NSCLC): 2.1 µM | TGI (EKVX NSCLC): 4.71 µM | GI50 (COLO 205 colon): 1.79 µM | TGI (COLO 205 colon): 3.38 µM | GI50 (SK-MEL-2 melanoma): 3.52 µM | TGI (SK-MEL-2 melanoma): 12.2 µM | GI50 (UACC-62 melanoma): 1.75 µM | TGI (UACC-62 melanoma): 3.22 µM | GI50 (NCI/ADR-RES ovarian): 2.28 µM | TGI (NCI/ADR-RES ovarian): 5.95 µM | GI50 (KM12 colon): 2.13 µM | TGI (KM12 colon): 4.59 µM | GI50 (NCI-H522 lung): 1.79 µM | TGI (NCI-H522 lung): 3.65 µM | GI50 (SK-MEL-28 melanoma): 1.71 µM | TGI (SK-MEL-28 melanoma): 3.13 µM | GI50 (HCC-2998 colon): 1.99 µM | TGI (HCC-2998 colon): 3.45 µM | GI50 (ACHN renal): 2.05 µM | TGI (ACHN renal): 4.4 µM | GI50 (SN12C renal): 1.71 µM | TGI (SN12C renal): 3.3 µM | GI50 (LOX IMVI melanoma): 1.74 µM | TGI (LOX IMVI melanoma): 3.26 µM | GI50 (MDA-MB-468 breast): 1.92 µM | TGI (MDA-MB-468 breast): 3.89 µM | GI50 (OVCAR-4 ovarian): 2.21 µM | TGI (OVCAR-4 ovarian): 5.94 µM | GI50 (MOLT-4 leukemia): 1.45 µM | TGI (MOLT-4 leukemia): 7.59 µM | GI50 (SR leukemia): 1.85 µM | TGI (SR leukemia): 5.65 µM | GI50 (OVCAR-3 ovarian): 2.15 µM | TGI (OVCAR-3 ovarian): 5.17 µM | GI50 (SNB-75 CNS): 1.6 µM | TGI (SNB-75 CNS): 4.37 µM | GI50 (NCI-H23 lung): 1.91 µM | TGI (NCI-H23 lung): 3.73 µM | GI50 (CAKI-1 renal): 1.81 µM | TGI (CAKI-1 renal): 4.13 µM | GI50 (A549 NSCLC): 2.44 µM | TGI (A549 NSCLC): 7.8 µM

From PubChem BioAssay (NCI)
